This is an account of results in PubChem BioAssay (NCI).

Structures are written as SMILES.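 Method: 48-hour compound exposure of cells in 96-well plates, five concentrations, linear interpolation of endpoints. GI50: concentration for 50% inhibition of growth. The concentration for full growth arrest is given as TGI.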 A value given as a limit tells only on which side of the number the result lay.

What all share (experiment): DTP human tumour cell line panel, 48 h
Assay [1] concerns UACC-62 melanoma.
Assay [2] relates to EKVX NSCLC.
Assay [3] deals with SK-MEL-28 melanoma.
For assay [4], the system named is SF-539 CNS.
For assay [5], the system named is SK-OV-3 ovarian.
Assay [6] relates to IGROV1 ovarian.
Assay [7] has as its system HS 578T breast.
For assay [8], the system named is T-47D breast.
In assay [9] the test system is OVCAR-3 ovarian.
In assay [10] the test system is SN12C renal.

Take `CCN(CC)CCCCCCNc1cc(OC)cc2cccnc12`: the GI50 in assay [1] was 2.29 µM; in assay [2] it was 13.4 µM; in assay [3], 2.09 µM; in [4], 1.84 µM; in assay [5], 17.7 µM; in assay [6] it was 2.27 µM. Moreover, the GI50 was 12.3 µM in assay [7], 17.5 µM in [8], 1.74 µM in assay [9] and 2.29 µM in assay [10]. For the same compound, the TGI in assay [1] amounted to 5.16 µM; in assay [2], 26.3 µM; in [3], 4.53 µM; in [4] it was 3.53 µM; in assay [5], 33 µM; in [6], 4.86 µM. In addition, the TGI in assay [7] turned out to be 42.3 µM; in assay [8] it was 38.6 µM; in [9], 3.4 µM; in assay [10], 5 µM.

Turning to `COc1ccc(-c2nc(/C=C3\SC(=NCc4ccccc4)NC3=O)c3ccccn23)cc1`, the GI50 in [1] was 1.55 µM; in [2] it was 2.41 µM; in assay [3], 2 µM; in assay [4] it was 1.41 µM; in assay [5], 2.05 µM; in [6], 1.47 µM. The GI50 in assay [7] was 1.37 µM; in assay [8], 1.26 µM; in assay [9] it was 1.04 µM; in assay [10] it was 1.68 µM. In addition, the TGI is 3.8 µM in [1]; more than 25.5 µM in assay [2]; 4.4 µM in assay [3]; 1.99 µM in assay [4]; 4.28 µM in [5]; 4.22 µM in assay [6]. For the same compound, the TGI in assay [7] was determined as 4.32 µM; in assay [8], 3.11 µM; in assay [9] it was 2.46 µM; in [10] it was 4.63 µM.

With `N#CC1=C(/N=C/c2ccccc2)Oc2c(ccc3ccccc23)C1c1ccccc1` (centres undefined), the GI50 in assay [1] is 0.653 µM; in [2] it was 5.13 µM; in [4], 0.335 µM; in assay [5] it was 0.534 µM; in [6], 0.725 µM; in assay [7], 0.377 µM. Besides, the GI50 was 0.341 µM in [9] and 0.822 µM in assay [10]. Besides, the TGI is more than 100 µM in assay [1]; more than 100 µM in [2]; more than 100 µM in assay [3]; 2.06 µM in assay [4]; more than 100 µM in [5]; more than 100 µM in [6]. Further, the TGI in assay [7] is more than 100 µM; in [9], 2.3 µM; in [10] it was more than 100 µM.

In the case of `CCc1cccc(C)c1NC(=O)c1sc2nc3c(cc2c1N)C(=O)CCC3`, the GI50 was 0.556 µM in assay [1]; 1.09 µM in assay [3]; 0.541 µM in [5]; 4.75 µM in assay [6]; 2.57 µM in assay [7]; 0.665 µM in [8]. The GI50 in assay [9] was 0.375 µM; in assay [10], 0.909 µM. Moreover, the TGI in assay [1] is more than 100 µM; in assay [3], more than 100 µM; in assay [5], more than 100 µM; in [6] it was more than 100 µM; in assay [7], more than 100 µM; in assay [8], more than 78.5 µM. Further, the TGI in [9] was 2.74 µM; in [10] it was more than 100 µM.

With `COC1C(O)C(CO)OC(OC2C(O)COC(OC3C(C)OC(OC4C(O[C@H]5CC[C@@]6(C)C(CC=C7[C@H]6CCC68C(=O)O[C@@](C)(CCCC(C)C)[C@H]6[C@@H](OC(C)=O)C[C@@]78C)C5(C)C)OCC(OS(=O)(=O)O)C4O)C(OC4OCC(O)C(O)C4O)C3O)C2O)C1O` (some centres undefined), the GI50 is 0.175 µM in assay [1]; 0.101 µM in assay [2]; 0.495 µM in [3]; 0.215 µM in assay [4]; 0.178 µM in assay [6]; 0.245 µM in assay [7]. In addition, the GI50 in [8] is 0.2 µM; in assay [9], 0.181 µM; in assay [10], 0.11 µM. The TGI in assay [1] turned out to be 0.353 µM; in assay [2], 0.565 µM; in assay [3], 2.14 µM; in assay [4] it was 0.606 µM; in [6], 0.499 µM; in assay [7], 0.598 µM. The TGI in [8] came out at 0.529 µM; in [10] it was 0.3 µM.

`N#CCCN1C/C(=C/c2ccc(Cl)cc2)C(=O)/C(=C/c2ccc(Cl)cc2)C1`: the GI50 in assay [1] is 1.8 µM; in [3] it was 1.91 µM; in assay [4], 1.32 µM; in assay [5] it was 2.23 µM; in [6], 1.75 µM; in [7], 2.9 µM. Also, the results for the GI50 in assay [8], in assay [9] and in [10] were 3.12 µM, 1.2 µM and 1.44 µM, respectively. The TGI in [1] was 4.1 µM; in assay [3], 3.9 µM; in assay [4], 2.74 µM; in assay [5], 5.4 µM; in assay [6], 3.95 µM; in assay [7], 12.8 µM. Besides, the results for the TGI in [8], in [9] and in assay [10] were 13.8 µM, 2.5 µM and 3.39 µM, respectively.

Regarding `O=C(Nc1cccc(-n2cc(-c3ccncc3)c(-c3cc(O)cc(Cl)c3)n2)c1)c1cc(C(F)(F)F)cc(C(F)(F)F)c1`, the GI50 in [1] was 3.79 µM; in assay [3], 4.71 µM; in assay [4], 5.01 µM; in assay [5] it was 10.8 µM; in assay [6], 7.96 µM; in assay [7], 6.38 µM. Moreover, the GI50 in [8] was 2.99 µM; in assay [9] it was 3.28 µM; in assay [10], 4.77 µM. For the same compound, the TGI in assay [1] is 22.4 µM; in assay [3], 85.3 µM; in assay [4], 51.7 µM; in [5], more than 100 µM; in [6] it was more than 100 µM; in assay [7], more than 100 µM. In addition, the values for the TGI in [8], in [9] and in [10] were 94.5 µM, 25.7 µM and more than 100 µM, respectively.

Regarding `Cc1cc(C)nc(SC2=C(Nc3cc(Cl)ccc3O)C(=O)N(Cc3ccccc3)C2=O)n1`, the GI50 in [1] is 16.2 µM; in assay [2], 57.7 µM; in assay [3], 42.3 µM; in assay [4] it was more than 160 µM; in [5], more than 160 µM; in assay [6], 25.3 µM. The GI50 in assay [7] was 28.1 µM; in assay [8], 15 µM; in assay [9] it was 18.8 µM. Further, the TGI in [1] is 41.8 µM; in assay [2] it was more than 160 µM; in assay [3], 148 µM; in assay [4], more than 160 µM; in [5] it was more than 160 µM; in assay [6], 88.6 µM. Besides, the TGI in assay [7] came out at 87.5 µM; in assay [8], 63.2 µM; in [9] it was 53.2 µM.

As usually defined, the GI50 is the concentration at which growth is held to half of that of the control. What is called TGI is the concentration at which net growth stops.
